What was measured:
[1] = in vivo; cited from earlier work
[2] = Acute toxicity (LD50) in mouse; conditions: in vivo
[3] = test system: circulating system; conditions: cited from earlier work
[4] = test system: patients; conditions: conventional use; cited from earlier work
[5] = test system: patients with urinary incontinence; test: Clinical test of L-threo-DOPS in patients with urinary incontinence (clinical effect and side effects); format: in vivo, human
Protocol: L-Threo-DOPS was administered (100 mg×3 times, a 4 weeks) to 13 patients with urinary incontinence in the clinic of urology. For estimating the effect on urinary incontinence and side effects, the patients were investigated medically before and after the treatment with L-Threo-Dops. […] Further, by urodynamic study, the patients were classified into urgent urinary incontinence (7 patients), stress urinary incontinence (3 patients) and other condition (3 patients).

[6] = test system: urinary bladder; test: Inner pressure of urinary bladder and urethra measured before and after administration (urodynamics); format: in vivo, human; conditions: some cases
Protocol: L-Threo-DOPS was administered (100 mg×3 times, a 4 weeks) to 13 patients with urinary incontinence in the clinic of urology. For estimating the effect on urinary incontinence and side effects, the patients were investigated medically before and after the treatment with L-Threo-Dops. The patients were 6 males and 7 females in the range of 35 to 76 years old, and were 51.8 years old in average. Further, by urodynamic study, the patients were classified into urgent urinary incontinence (7 patients), stress urinary incontinence (3 patients) and other condition (3 patients).

[7] = test system: aromatic L-amino acid decarboxylase; conditions: cited from earlier work
[8] = test system: Harmalin-induced tremor; conditions: in vivo; cited from earlier work
[9] = all 13 patients, 100 mg×3 times, 4 weeks
[10] = all of the cases, summary statement

## N[C@H](C(=O)O)[C@H](O)c1ccc(O)c(O)c1 (relative stereo) [DL- or L-threo-DOPS, DL- or L-threo-3-(3,4-dihydroxyphenyl)serine]
[1]
  Conversion into 1-NA after administration: gradually converted into 1-NA
  Distribution after administration: distributed both centrally and peripherally

## N[C@H](C(=O)O)[C@H](O)c1ccc(O)c(O)c1 (relative stereo) [active ingredient, DL- or L-threo-3-(3,4-dihydroxyphenyl)serine]
[2]; ip, intraperitoneal
  LD50: ~10000 mg/kg
[2]; oral
  LD50: ≥ 10000 mg/kg

## NC[C@H](O)c1ccc(O)c(O)c1 [1-NA, 1-noradrenaline]
[3]; after injection
  Duration: shorter, rather instantaneous
[3]; immediately after injection
  Effects on circulating system: drastic effects on circulating system to cause hypertension and palpitation

## CN(C)CCCN1c2ccccc2CCc2ccccc21 [Imipramine]
[4]
  Side effects: side effects such as thirst, constipation and nasal obstruction

## N[C@H](C(=O)O)[C@H](O)c1ccc(O)c(O)c1 [L-threo-DOPS, L-threo-3-(3,4-dihydroxyphenyl)serine]
[5]; Case 1, 300 mg/day × 4 weeks
  Side effect: None
[5]; Case 2, 300 mg/day × 4 weeks
  Side effect: None
[5]; Case 3, 300 mg/day × 4 weeks
  Side effect: None
[5]; Case 4, 300 mg/day × 4 weeks
  Side effect: None
[5]; Case 5, 300 mg (3) × 4 weeks
  Side effect: None
[5]; Case 6, 300 mg (3) × 4 weeks
  Side effect: None
[5]; Case 7, 300 mg (3) × 4 weeks
  Side effect: None
[5]; Case 7, urgent urinary incontinence, 300 mg (3) × 4 weeks
  Clinical effect: improved
[5]; Case 8, 300 mg (3) × 4 weeks
  Side effect: None
[5]; Case 8, stress incontinence, 300 mg (3) × 4 weeks
  Clinical effect: improved
[5]; Case 9, 300 mg/day × 4 weeks
  Side effect: None
[5]; Case 9, stress incontinence, 300 mg/day × 4 weeks
  Clinical effect: Improved
[5]; Case 10, 300 mg/day × 4 weeks
  Side effect: None
[5]; Case 11, 300 mg/day × 4 weeks
  Side effect: None
[5]; Case 12, 300 mg/day × 4 weeks
  Side effect: None
[5]; Case 13, 300 mg/day × 4 weeks
  Side effect: None
[5]; Case 13, Enuresis, 300 mg/day × 4 weeks
  Clinical effect: Improved
[5]; [9]
  Cases with disappearance of the symptoms or improvement to a moderate degree or more, total: 9 cases
  Remaining cases in which L-threo-DOPS was almost ineffective: 4 cases
[5]; all cases, 100 mg×3 times, 4 weeks
  Side effects such as urine discharge disturbance, palpitation and hypertension: not noted
[5]; [10]
  Side effects: no side effects were noted
  Tendency of dysuria: even tendency of dysuria was not noted
[5]; all patients, 100 mg×3 times, 4 weeks
  Cases with clinical effect of more than a slight improvement: 10 out of 13
[5]; other condition, 100 mg×3 times, 4 weeks
  Cases with disappearance of the symptoms or improvement to a moderate degree or more: 2 out of 3
[5]; patients improved, 100 mg×3 times, 4 weeks
  Patient satisfaction: highly satisfactory
[5]; stress urinary incontinence, 100 mg×3 times, 4 weeks
  Cases with disappearance of the symptoms or improvement to a moderate degree or more: 2 out of 3
[5]; summary statement
  Effect on urinary incontinence: excellent effect on urinary incontinence
[5]; urgent urinary incontinence, 100 mg×3 times, 4 weeks
  Cases with disappearance of the symptoms or improvement to a moderate degree or more: 5 out of 7
[6]
  Volume of the urinary bladder: increased volume of the urinary bladder was confirmed
[7]
  Decarboxylation by aromatic L-amino acid decarboxylase to natural 1-noradrenaline: undergo decarboxylation by the action of aromatic L-amino acid decarboxylase to produce natural 1-noradrenaline
[8]
  Action on Harmalin-induced tremor: inhibitory action on Harmalin-induced tremor
